The source of these data is ChEMBL document CHEMBL1201862, “PubChem BioAssay data set” (2004).

One test addresses T1, Protein RecA (Mycobacterium tuberculosis, UniProt P9WHJ3).
T1 sequence (P9WHJ3 whole entry): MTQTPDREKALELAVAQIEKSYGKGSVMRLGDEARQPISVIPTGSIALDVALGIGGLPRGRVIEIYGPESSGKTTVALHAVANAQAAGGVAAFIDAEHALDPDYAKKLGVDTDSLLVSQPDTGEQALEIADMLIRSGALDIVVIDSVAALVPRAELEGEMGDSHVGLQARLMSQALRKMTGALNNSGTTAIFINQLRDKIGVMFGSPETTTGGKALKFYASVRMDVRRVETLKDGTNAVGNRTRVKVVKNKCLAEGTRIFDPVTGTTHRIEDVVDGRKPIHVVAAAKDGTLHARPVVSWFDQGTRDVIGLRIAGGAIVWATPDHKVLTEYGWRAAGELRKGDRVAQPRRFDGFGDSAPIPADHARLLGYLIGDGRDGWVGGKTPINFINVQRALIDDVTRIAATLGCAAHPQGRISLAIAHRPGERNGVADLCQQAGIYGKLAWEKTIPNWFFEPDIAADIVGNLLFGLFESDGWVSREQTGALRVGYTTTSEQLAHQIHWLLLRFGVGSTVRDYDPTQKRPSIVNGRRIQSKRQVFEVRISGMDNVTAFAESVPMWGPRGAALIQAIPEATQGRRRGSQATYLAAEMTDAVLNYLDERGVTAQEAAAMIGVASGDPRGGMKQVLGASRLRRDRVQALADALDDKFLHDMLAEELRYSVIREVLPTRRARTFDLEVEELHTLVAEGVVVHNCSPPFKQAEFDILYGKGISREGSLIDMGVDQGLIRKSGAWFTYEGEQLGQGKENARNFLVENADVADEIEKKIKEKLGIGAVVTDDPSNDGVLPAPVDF
The test can be described thus: Fluorescence Cell-Free Homogeneous Dose Retest to Identify Inhibitors of RecA-Intein Splicing Activity. [Related pubchem assays (depositor defined):AID2097, AID2223, AID489010, AID492950]. In kind it is functional.

Test [1] concerns the target T2, Replicative DNA helicase DnaB (Mycobacterium tuberculosis, UniProt P9WMR3).
T2 sequence (P9WMR3 whole entry): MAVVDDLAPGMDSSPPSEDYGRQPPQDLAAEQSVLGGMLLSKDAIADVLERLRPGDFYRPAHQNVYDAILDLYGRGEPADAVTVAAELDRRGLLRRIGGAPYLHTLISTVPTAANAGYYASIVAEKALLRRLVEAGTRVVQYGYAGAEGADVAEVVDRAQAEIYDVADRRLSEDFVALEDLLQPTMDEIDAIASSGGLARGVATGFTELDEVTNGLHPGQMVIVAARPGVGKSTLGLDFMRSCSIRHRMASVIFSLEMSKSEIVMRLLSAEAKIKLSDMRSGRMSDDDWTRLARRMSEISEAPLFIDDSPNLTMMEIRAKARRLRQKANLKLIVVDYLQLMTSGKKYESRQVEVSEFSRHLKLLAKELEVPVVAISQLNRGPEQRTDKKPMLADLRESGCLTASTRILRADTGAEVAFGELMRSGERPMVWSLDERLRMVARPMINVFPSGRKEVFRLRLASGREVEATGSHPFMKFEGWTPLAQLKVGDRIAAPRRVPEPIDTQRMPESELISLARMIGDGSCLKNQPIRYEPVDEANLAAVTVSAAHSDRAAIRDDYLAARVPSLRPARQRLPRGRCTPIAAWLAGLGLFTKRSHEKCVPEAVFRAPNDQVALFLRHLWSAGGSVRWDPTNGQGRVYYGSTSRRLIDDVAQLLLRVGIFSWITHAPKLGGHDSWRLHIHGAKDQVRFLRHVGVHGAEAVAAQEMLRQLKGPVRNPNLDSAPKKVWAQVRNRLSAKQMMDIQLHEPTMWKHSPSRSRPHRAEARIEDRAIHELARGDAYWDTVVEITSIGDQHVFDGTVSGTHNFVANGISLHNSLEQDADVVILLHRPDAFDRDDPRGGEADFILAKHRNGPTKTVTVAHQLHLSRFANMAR
Description: DnaB intein splicing inhibitors, dose response, biochemical, cell-free fluorescence (AID 449749). It counts as functional.

Another test concerns the target Cytochrome P450 2D6 (Homo sapiens, UniProt P10635).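 Also: CYP2D6 member of a cytochrome P450 panel assay.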
The next test deals with Large T antigen (Simian virus 40, UniProt P03070). It counts as functional, Betapolyomavirus macacae.
The target of test [2] is T3, Corticotropin-releasing factor receptor 2/Corticotropin-releasing factor-binding protein (Homo sapiens, UniProt P24387+Q13324).
T3 sequence (Q13324 whole entry): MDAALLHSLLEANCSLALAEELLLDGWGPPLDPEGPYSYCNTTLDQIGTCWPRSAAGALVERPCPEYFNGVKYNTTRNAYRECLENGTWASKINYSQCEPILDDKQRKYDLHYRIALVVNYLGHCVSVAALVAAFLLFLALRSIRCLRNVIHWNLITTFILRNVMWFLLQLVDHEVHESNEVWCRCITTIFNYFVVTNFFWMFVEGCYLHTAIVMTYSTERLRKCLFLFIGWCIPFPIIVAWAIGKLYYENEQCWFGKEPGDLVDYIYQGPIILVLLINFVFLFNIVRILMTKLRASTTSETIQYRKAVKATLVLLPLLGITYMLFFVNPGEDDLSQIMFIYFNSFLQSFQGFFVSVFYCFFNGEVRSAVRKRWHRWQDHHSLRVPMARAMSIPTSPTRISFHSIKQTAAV
T3 sequence (P24387 whole entry): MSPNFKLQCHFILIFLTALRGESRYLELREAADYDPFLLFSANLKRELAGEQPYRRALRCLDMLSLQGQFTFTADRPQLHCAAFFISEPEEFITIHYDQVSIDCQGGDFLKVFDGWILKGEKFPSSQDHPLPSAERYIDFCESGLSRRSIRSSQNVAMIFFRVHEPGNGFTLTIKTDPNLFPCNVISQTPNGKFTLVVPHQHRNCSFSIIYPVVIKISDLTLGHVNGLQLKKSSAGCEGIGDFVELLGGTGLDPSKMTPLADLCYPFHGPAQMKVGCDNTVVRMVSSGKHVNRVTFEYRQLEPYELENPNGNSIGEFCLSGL
The test can be described thus: activators of CRF receptor 2 with binding protein – uHTS hits, confirmation (AID 602473). In kind it is functional. The settings on record: read-out: EC50_Mean.

A short description of test [3]: cytotoxicity toward NIH3T3 fibroblasts, dose response, counter-screen, cell-based, ATP luminescence, mouse fibroblasts (AID 2010).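 Also: cells exposed to compound for about 90 hours before reading.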 In kind it is functional. Background: Counterscreens check selectivity or assay interference.
A short description of test [4]: inhibitors of intracellular T. cruzi replication, confirmation, NIH3T3 host cells, beta-gal luminescence (AID 2044).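 Also: intracellular parasites grown in NIH/3T3 mouse fibroblasts as host cells; luminescent beta-galactosidase reporter signal from transgenic T. cruzi replicating inside host cells; inhibitors lower the luminescence signal.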 It counts as functional, cell-based.

Calls of active or inactive are those of the source. Rule as the data show it, for most assays here: actives have a measured EC50 and inactives only a lower limit.
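For IC50 in this document: Confirmatory-stage PubChem screen for compounds that inhibit SV40 T antigen.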

Cytochrome P450 2D6, sequence (P10635 whole entry): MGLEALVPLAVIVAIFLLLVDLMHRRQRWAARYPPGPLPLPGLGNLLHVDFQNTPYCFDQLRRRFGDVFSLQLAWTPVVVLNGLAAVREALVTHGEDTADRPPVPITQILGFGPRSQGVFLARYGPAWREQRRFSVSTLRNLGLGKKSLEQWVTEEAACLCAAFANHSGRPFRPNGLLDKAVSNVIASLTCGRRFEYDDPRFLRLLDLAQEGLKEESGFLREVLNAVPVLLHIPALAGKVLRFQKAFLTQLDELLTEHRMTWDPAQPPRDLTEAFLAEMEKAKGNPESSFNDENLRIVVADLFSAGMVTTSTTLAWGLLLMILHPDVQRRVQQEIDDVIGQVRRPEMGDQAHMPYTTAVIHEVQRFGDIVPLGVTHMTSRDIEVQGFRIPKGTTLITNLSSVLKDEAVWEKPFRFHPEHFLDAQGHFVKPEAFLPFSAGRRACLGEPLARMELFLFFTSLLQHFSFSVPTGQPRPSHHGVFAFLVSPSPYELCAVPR
Large T antigen, sequence (P03070 whole entry): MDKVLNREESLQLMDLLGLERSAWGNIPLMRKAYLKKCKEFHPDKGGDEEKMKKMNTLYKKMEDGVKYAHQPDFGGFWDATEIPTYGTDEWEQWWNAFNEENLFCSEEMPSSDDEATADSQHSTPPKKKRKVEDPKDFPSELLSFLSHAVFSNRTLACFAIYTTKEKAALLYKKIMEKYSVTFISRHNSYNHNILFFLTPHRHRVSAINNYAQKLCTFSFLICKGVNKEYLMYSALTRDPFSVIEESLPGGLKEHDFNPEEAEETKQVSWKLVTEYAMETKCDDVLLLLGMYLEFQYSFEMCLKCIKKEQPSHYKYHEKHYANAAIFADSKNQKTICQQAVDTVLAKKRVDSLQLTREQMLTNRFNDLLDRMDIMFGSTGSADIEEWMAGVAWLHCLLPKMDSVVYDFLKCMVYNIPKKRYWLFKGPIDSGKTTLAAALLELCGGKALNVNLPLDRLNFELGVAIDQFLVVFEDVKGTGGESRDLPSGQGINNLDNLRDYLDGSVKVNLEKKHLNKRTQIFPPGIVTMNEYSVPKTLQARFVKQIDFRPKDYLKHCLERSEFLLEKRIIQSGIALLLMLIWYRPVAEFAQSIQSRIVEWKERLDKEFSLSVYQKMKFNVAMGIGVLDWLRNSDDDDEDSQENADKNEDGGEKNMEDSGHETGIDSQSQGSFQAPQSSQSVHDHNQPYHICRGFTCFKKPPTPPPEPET

`CC1=NNC(=O)C1C(c1ccccc1)C(C#N)C#N` (configuration not stated): the EC50 at Protein RecA is 3.84 µM (active). The AC50 (in general, the concentration at which the activity in the assay is half-maximal) in test [1] is 5.23 µM (active).
With `COc1ccc([C@@H](C)c2cc3c(cc2O)OCO3)cc1`, the AC50 on Cytochrome P450 2D6 was 3.98 µM (inconclusive).
Regarding `CCC(=O)Oc1ccc(C(=O)Nc2cccc(C(=O)c3ccccc3)c2)cc1`, at Protein RecA, the EC50 is 13.8 µM (active). The AC50 in test [1] was 13.2 µM (active).
Take `Cc1n[nH]c(Nc2ccc(O)cc2)c1[N+](=O)[O-]`: the IC50 – broadly, the midpoint of a concentration-inhibition curve – on Large T antigen was 7.06 µM (active).
As for `Cc1ccc(-[n+]2cc(=O)o[nH]2)cc1`, the AC50 on Cytochrome P450 2D6 is 1.58 µM (inconclusive).
As for `COC(=O)c1c(NC(=O)CN2CCC3(O)CCCCC3C2c2ccccc2OC)sc(C)c1C` (configuration not stated), the EC50 in test [2] was > 53 µM (inactive).
On to `Cc1ccc(S(=O)(=O)CCC(=O)c2cccc([N+](=O)[O-])c2)cc1`, for which the EC50 in test [3] was > 60 µM (not active); in test [4], 2.47 µM (active).
With `CC(C)(C)c1[nH]nc2c1C(c1ccoc1)C(C#N)=C(N)O2` (configuration not stated), the EC50 on Protein RecA is 3.58 µM (active). Besides, in test [1], the half-maximal activity concentration (AC50) was 20.4 µM (active).
In the same order, the values of `CC(=O)Nc1ccc(NC(=O)CSc2ncc(C(=O)Nc3ccc(F)cc3)c(=O)n2C)cc1` are > 380 µM (inconclusive) and > 380 µM (inactive).
For `CCOC(=O)c1c(NC(=O)CSc2nnnn2C)sc(C)c1C`, on Cytochrome P450 2D6, the AC50 was 25.1 µM (inconclusive).
In the case of `CC(C)N1CCc2c(sc(NC(=O)c3ccc(S(=O)(=O)N4CCOCC4)cc3)c2C#N)C1`, the EC50 in test [2] was 5.69 µM (active).
Regarding `COc1ccc2[nH]c(C)c(CCN(Cc3cccs3)C(S)=Nc3cccc(F)c3)c2c1`, the EC50 was > 60 µM (not active) in test [3] and 3.35 µM (active) in test [4].
Turning to `O=C1COC(c2ccccc2O)=NN1CCCN1CCCC1`, the AC50 on Cytochrome P450 2D6 was 3.16 µM (inconclusive).
`C=C(C)COc1ccc(-c2ncncc2-c2ccccc2OC)c(O)c1`: the EC50 in test [3] was > 60 µM (not active); in test [4] it was 0.544 µM (active).
`Cc1cc(C(=O)CN2C(=O)c3ccccc3C2=O)c(C)n1C1CC1`: the EC50 on Protein RecA was > 380 µM (inactive). For the same compound, the AC50 in test [1] is > 380 µM (inactive).
On to `COc1ccccc1CNc1ncncc1-c1cccnc1`, for which the AC50 at Cytochrome P450 2D6 was 20 µM (inconclusive).
Turning to `CCCc1[nH][nH]c(=O)c1C(c1cccc(Cl)c1)C(C#N)C#N` (configuration not stated), at Protein RecA, the EC50 is 0.755 µM (active). Moreover, the AC50 in test [1] is > 380 µM (inactive).
As for `COC(=O)[C@@]1(Cc2ccccc2)[C@H]2c3cc(C(=O)N(C)C)n(Cc4ccsc4Br)c3C[C@H]2CN1C(=O)c1ccccc1`, the AC50 on Cytochrome P450 2D6 is 31.6 µM (inconclusive).
Consider `C=CCn1c(SCC(C)=O)nc2scc(-c3ccco3)c2c1=O`, for which the IC50 at Large T antigen was 60.2 µM (active).
In the case of `Cc1ccccc1-n1nc2c(c1NC(=O)c1ccc(S(=O)(=O)N(C)C)cc1)CSC2`, the AC50 on Cytochrome P450 2D6 was 28.2 µM (inconclusive).
`C/C=C/C(=O)Nc1cccc(C2=NOC3(C2)C[C@@H](C(N)=O)N(C(=O)c2cc([N+](=O)[O-])cc([N+](=O)[O-])c2C)C3)c1` (some centres not stated): the EC50 in test [2] was > 53 µM (inactive).
In the case of `Cc1ccccc1-c1cncnc1Nc1ccc(F)cc1`, the AC50 at Cytochrome P450 2D6 was 39.8 µM (inconclusive).
Take `COc1cc(/C=C2/C(=O)N(c3ccccc3)N=C2C)ccc1OS(=O)(=O)c1ccccc1`: the EC50 on Protein RecA is 1.5 µM (active). The AC50 in test [1] is 1.94 µM (active).
Take `CC(C)c1ccc(C2C3=C(CC(C)(C)CC3=O)N=C3C2=C(O)c2ccccc23)cc1` (configuration not stated): the EC50 in test [3] was > 60 µM (not active); in test [4], 1.68 µM (active).
As for `Cc1ccc(-n2nnnc2CCl)cc1`, the EC50 on Protein RecA is 7.8 µM (active). Further, the AC50 in test [1] is 54.2 µM (active).
In the same order, the values of `O=C(Oc1ccc(Br)cc1C(=S)N1CCCCC1)c1cc([N+](=O)[O-])cc([N+](=O)[O-])c1` are 1.71 µM (active) and 23.9 µM (active).
Take `N#C/C(=C(/O)c1ccc([N+](=O)[O-])s1)c1nc2ccccc2[nH]1`: the EC50 in test [3] is 4.89 µM (active); in test [4] it was 0.233 µM (active).
On to `CCOc1ccc(C(c2c(C)n[nH]c2O)c2c(C)n[nH]c2O)cc1OCC`, for which the EC50 on Protein RecA is 0.183 µM (active). Besides, in test [1], the AC50 was 0.412 µM (active).
For the compound `Cc1ccc(-c2nn(-c3cc(N4CCNCC4)ccc3[N+](=O)[O-])c(=O)c3ccccc23)cc1`, the EC50 in test [3] was > 60 µM (inconclusive); in test [4], 2.04 µM (active).
For the compound `CCN(C(=O)CSc1ncccc1C(=O)Oc1cccc([N+](=O)[O-])c1)c1cccc(C)c1`, the EC50 at Protein RecA is > 380 µM (inconclusive). Also, the AC50 in test [1] was 3.43 µM (active).
In the same order, the values of `Nc1ccc(O)c2ccccc12` are 10.1 µM (active) and 16 µM (active).
As for `CCN1C(=O)C(=CC=CN(C)c2ccccc2)SC1=S`, the EC50 in test [2] was 6.59 µM (active).
`CN1CCN(/N=C/c2ccc(-c3ccc([N+](=O)[O-])cc3Cl)o2)CC1`: the EC50 in test [3] is > 60 µM (inconclusive); in test [4], 0.474 µM (active).
Regarding `COc1ccccc1/N=C/C=C1OC(C)(C)C(C)(C)O1`, the EC50 in test [3] was > 60 µM (not active); in test [4] it was 3.65 µM (active).
Turning to `CCOC(=O)N/N=C\c1ccc(OC(=O)c2ccco2)cc1`, the EC50 at Protein RecA is 14.5 µM (active). Besides, in test [1], the half-maximal activity concentration (AC50) is 17 µM (active).
Regarding `COc1cc(/C=N/NC(=O)C(=O)NCc2ccco2)ccc1O`, the IC50 at Large T antigen is 12.9 µM (active).
Turning to `CCOC(=O)/C(=N\Nc1ccccc1Cl)N1CCN(c2ccccc2OC)CC1`, the EC50 was 33.7 µM (active) in test [3] and 1.18 µM (active) in test [4].
As to `NS(=O)(=O)c1ccc(/N=C/c2c(O)oc3ccccc3c2=O)cc1`, the EC50 on Protein RecA was > 380 µM (inactive). In addition, in test [1], the AC50 was > 380 µM (inactive).
In the case of `CCCN1CCC[C@@H]2Cc3nc(N)ncc3C[C@H]21` [QUINELORANE], the AC50 on Cytochrome P450 2D6 was 25.1 µM (inconclusive).
